Assay [1] deals with curli (Escherichia coli, UniProt P28307). Briefly: Inhibition of curli assembly (FIG. 4). The note with it: in the presence of compound. The class given is biochemical. An excerpt: DAPH-12 (top) blocks tyrosine stacking, while Amphotericin B (bottom) binds to the edge strands and prevents amyloid assembly.
For assay [2], the target named is CsgA (Escherichia coli, UniProt P28307). The note with it: peptides immobilized on glass slide; recombinant CsgA ~2 μm, about 10% labeled with ALEXA-647; stringent wash.
Sequence of CsgA (P28307 21-151): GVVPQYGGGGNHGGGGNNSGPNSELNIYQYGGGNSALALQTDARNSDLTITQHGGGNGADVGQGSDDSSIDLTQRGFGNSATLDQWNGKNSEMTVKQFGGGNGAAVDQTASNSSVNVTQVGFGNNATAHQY
Experimental: Peptide array synthesis, hybridization and quantification. […] Each peptide spot (250 μM in diameter) is printed with 3 drops of 0.5 nL of peptide solution at a concentration of approximately 2.5 μM using non-contact printing (JPT Peptide Technologies GmbH). The unreacted peptides are removed from the hydrogel slides, dried and then the slides are blocked with 3% BSA in PBST for 1 hr. CsgA proteins are denatured in 6 M GuHCl at 100° C. for approximately 20 minutes, diluted 125 times in PBST containing 3% BSA to a final concentration of 1-5 μM and a label ratio of 5-75%. A single peptide array is incubated with approximately 2-3 mL of diluted CsgA using an ATLAS™ hybridization chamber (BD Biociences) without mixing for a given period of time. The peptide arrays are then washed 5 times with 50 mL of 2% SDS for 30 minutes, 5 times with 50 mL of water, 3 times with 50 mL of methanol and then spun dry. […] The arrays are imaged using a GENEPIX® 4000A scanner and the median values for the peptide spots of two to three replicates are quantified using GENEPIX® Pro 6.0 software (Molecular Devices).
Denatured peptides were arrayed on reactive glass slides and their interaction with soluble, fluorescently labeled CsgA was studied.
A peptide library of CsgB sequences was generated and immobilized on a glass slide essentially as described above. […]

Sequence of curli (P28307 21-151): as above

On to `C[C@@H]1[C@H](O)[C@@H](C)/C=C/C=C/C=C/C=C/C=C/C=C/C=C/[C@H](O[C@@H]2O[C@H](C)[C@@H](O)[C@H](N)[C@@H]2O)C[C@@H]2O[C@](O)(C[C@@H](O)C[C@@H](O)[C@H](O)CC[C@@H](O)C[C@@H](O)CC(=O)O[C@H]1C)C[C@H](O)[C@H]2C(=O)O` [Amphotericin B], for which the “inhibition of curli assembly” value in assay [1] is reported as “inhibition of curli assembly”. As to `COc1ccc(Nc2cc3c(cc2Nc2ccc(OC)cc2)C(=O)NC3=O)cc1` [DAPH-12], in assay [1], the “inhibition of curli assembly” value is listed as “inhibition of curli assembly”. With GTQKTAIVVQRQSQMAIRVT [SEQ ID NO: 2], the “nucleation of assembly of soluble, fluorescently labeled CsgA by arrayed peptides” value in assay [2] is listed as “nucleate assembly of CsgA”. Turning to LRQGGSKLLAVVAQEGSSNRAK [SEQ ID NO: 1], the “nucleation of assembly of soluble, fluorescently labeled CsgA by arrayed peptides” value in assay [2] is on record as “nucleate assembly of CsgA”.
